Laboratory results from patent US20140323504A1, “Pyrazolo[4,3-c]Pyridine Derivatives As Kinase Inhibitors” (Cellzome Limited, priority 2011, published 2014).

Experiments:
[1] = biological target: T1, ITK (Homo sapiens, UniProt Q08881); experiment: Radiometric protein kinase assay (33PanQinase, ProQinase), ITK; assay type: biochemical; conditions: ATP at apparent Km (1.0 μM); for IC50: read-out: ITK enzyme assay IC50
T1 construct: purchased ProQinase GmbH, Freiburg, Germany
T1 sequence (Q08881 1-620): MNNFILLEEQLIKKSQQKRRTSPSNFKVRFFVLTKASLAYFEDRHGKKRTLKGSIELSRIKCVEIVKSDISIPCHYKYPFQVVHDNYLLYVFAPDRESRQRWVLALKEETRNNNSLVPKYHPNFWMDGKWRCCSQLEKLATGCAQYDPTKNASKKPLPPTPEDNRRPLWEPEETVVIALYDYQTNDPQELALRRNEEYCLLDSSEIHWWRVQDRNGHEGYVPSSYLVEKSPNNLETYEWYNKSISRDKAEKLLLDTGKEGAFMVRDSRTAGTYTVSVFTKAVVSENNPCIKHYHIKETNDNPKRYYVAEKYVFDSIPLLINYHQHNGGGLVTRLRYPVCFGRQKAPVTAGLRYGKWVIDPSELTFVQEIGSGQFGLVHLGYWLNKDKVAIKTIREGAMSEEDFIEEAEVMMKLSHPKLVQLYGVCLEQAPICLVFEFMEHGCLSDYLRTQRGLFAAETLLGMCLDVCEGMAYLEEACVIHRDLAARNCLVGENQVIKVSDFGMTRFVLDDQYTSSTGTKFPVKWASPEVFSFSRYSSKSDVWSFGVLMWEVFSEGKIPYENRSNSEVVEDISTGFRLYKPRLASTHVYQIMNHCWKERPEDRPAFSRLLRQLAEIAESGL
Method: (§1) A radiometric protein kinase assay (^33PanQinase® Activity Assay; ProQinase GmbH, Freiburg, Germany) was used for measuring the kinase activity of the protein kinases BLK, BTK, ITK and JAK3. All kinase assays were performed in 96-well FlashPlates™ from PerkinElmer (Boston, Mass., USA) in a 50 μl reaction volume. The reaction cocktail was pipetted in four steps in the following order: • 20 μl of assay buffer (standard buffer) • 5 μl of ATP solution (in H2O) • 5 μl of test compound (in 10% DMSO) • 10 μl of substrate/10 μl of enzyme solution (premixed)
(§2) The reaction cocktails were incubated at 30° C. for 60 minutes. The reaction was stopped with 50 μl of 2% (v/v) H3PO4, plates were aspirated and washed two times with 200 μl 0.9% (w/v) NaCl. Incorporation of ^33Pi was determined with a microplate scintillation counter (Microbeta, Wallac). All assays were performed with a BeckmanCoulter/SAGIAN™ Core System.

[2] = biological target: T2, JAK3 (Homo sapiens, UniProt P52333); experiment: Radiometric protein kinase assay (33PanQinase, ProQinase), JAK3; assay type: biochemical; set-up: endogenous in cells; host or cells: mixed Molt4/Ramos cell lysate (1:2); conditions: read-out: JAK3 enzyme assay IC50
T2 sequence (P52333 1-1124): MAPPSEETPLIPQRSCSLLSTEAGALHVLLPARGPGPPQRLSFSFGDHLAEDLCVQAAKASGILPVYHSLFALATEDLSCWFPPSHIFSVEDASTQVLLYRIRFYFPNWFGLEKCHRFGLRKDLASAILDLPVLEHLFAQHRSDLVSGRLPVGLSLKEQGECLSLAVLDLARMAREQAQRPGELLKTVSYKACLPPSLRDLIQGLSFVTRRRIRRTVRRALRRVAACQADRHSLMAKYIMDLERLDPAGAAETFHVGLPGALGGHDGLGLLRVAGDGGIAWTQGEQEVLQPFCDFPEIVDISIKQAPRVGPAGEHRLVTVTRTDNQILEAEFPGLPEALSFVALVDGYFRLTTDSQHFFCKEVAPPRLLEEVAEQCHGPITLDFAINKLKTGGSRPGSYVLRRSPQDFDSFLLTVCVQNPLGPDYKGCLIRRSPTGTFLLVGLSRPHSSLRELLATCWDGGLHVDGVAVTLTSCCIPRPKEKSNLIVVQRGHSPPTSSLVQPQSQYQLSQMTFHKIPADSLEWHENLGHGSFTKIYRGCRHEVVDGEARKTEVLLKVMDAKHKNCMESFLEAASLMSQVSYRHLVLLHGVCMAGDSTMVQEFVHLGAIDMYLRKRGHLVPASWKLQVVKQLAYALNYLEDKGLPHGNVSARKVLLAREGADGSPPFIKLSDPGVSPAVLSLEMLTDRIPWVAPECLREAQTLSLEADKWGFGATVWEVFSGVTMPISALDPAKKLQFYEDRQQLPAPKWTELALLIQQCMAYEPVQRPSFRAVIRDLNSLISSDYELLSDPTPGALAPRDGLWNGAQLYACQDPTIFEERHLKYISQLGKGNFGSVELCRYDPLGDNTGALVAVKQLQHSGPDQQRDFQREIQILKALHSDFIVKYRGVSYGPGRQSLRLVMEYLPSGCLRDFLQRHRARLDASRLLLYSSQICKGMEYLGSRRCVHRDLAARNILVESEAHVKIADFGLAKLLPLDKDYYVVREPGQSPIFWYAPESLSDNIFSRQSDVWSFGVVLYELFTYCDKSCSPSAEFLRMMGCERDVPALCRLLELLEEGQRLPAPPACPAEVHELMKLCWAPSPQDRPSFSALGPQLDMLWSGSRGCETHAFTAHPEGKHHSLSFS
Method: as §1, §2

C=CC(=O)Nc1cccc(Cn2ncc3cnc(Nc4cnn(C)c4)nc32)c1 [Example 1, N-(3-((6-((1-Methyl-1H-pyrazol-4-yl)amino)-1H-pyrazolo[3,4-d]pyrimidin-1-yl)methyl)phenyl)acrylamide]
IC50 [1]: 230 nM
IC50 [2]: 3 nM

C#CC(=O)Nc1cccc(Cn2ncc3cnc(Nc4cnn(C)c4)nc32)c1 [Example 3, N-(3-((6-((1-Methyl-1H-pyrazol-4-yl)amino)-1H-pyrazolo[3,4-d]pyrimidin-1-yl)methyl)phenyl)propiolamide]
IC50 [1]: 3 nM
IC50 [2]: 4 nM

C=CS(=O)(=O)Nc1cccc(Cn2ncc3cnc(Nc4cnn(C)c4)nc32)c1 [Example 4, N-(3-((6-((1-Methyl-1H-pyrazol-4-yl)amino)-1H-pyrazolo[3,4-d]pyrimidin-1-yl)methyl)phenyl)ethenesulfonamide]
IC50 [1]: 80 nM
IC50 [2]: 7 nM

CC(=O)Nc1cccc(Cn2ncc3cnc(Nc4cnn(C)c4)nc32)c1 [compound 2, N-(3-((6-((1-methyl-1H-pyrazol-4-yl)amino)-1H-pyrazolo[3,4-d]pyrimidin-1-yl)methyl)phenyl)acetamide, reference compound]
ITK enzyme assay IC50 [1]: inactive
IC50 [2]: 290 nM
